Source: the supplement of paper PMC13380429

Legend:
Details in all cases: 72 h
[1] = tested on: HepG2; experiment: cell viability relative to DMSO; higher = less toxic
[2] = tested on: Calu-3; experiment: as above
[3] = tested on: U2OS; experiment: as above
[4] = tested on: Caco-2; experiment: as above
[5] = tested on: Vero E6; experiment: as above
[6] = tested on: HepG2; experiment: drug sensitivity score (DSS) for viability; higher = more toxic; extreme values may be limits of the assay
[7] = tested on: Calu-3; experiment: as above
[8] = tested on: U2OS; experiment: as above
[9] = tested on: Caco-2; experiment: as above
[10] = tested on: Vero E6; experiment: as above
[11] = tested on: HepG2; experiment: relative viability EC50 (midpoint between 100% and the lowest measured viability); higher = less toxic
[12] = tested on: Calu-3; experiment: as above
[13] = tested on: U2OS; experiment: as above
[14] = tested on: Caco-2; experiment: as above
[15] = tested on: Vero E6; experiment: as above

Clc1ccc(N2CCN(Cc3c[nH]c4ncccc34)CC2)cc1
cell viability ([1]; 1 nM): 102% | cell viability ([1]; 10 nM): 93.8% | cell viability ([1]; 100 nM): 97.1% | cell viability ([1]; 1000 nM): 93.6% | cell viability ([1]; 10000 nM): 79.8% | cell viability ([2]; 1 nM): 88.6% | cell viability ([2]; 10 nM): 99.1% | cell viability ([2]; 100 nM): 101% | cell viability ([2]; 1000 nM): 92.9% | cell viability ([2]; 10000 nM): 87.9% | cell viability ([3]; 1 nM): 96.1% | cell viability ([3]; 10 nM): 98.2% | cell viability ([3]; 100 nM): 95.9% | cell viability ([3]; 1000 nM): 102% | cell viability ([3]; 10000 nM): 92.2% | cell viability ([4]; 1 nM): 103% | cell viability ([4]; 10 nM): 98.1% | cell viability ([4]; 100 nM): 95.5% | cell viability ([4]; 1000 nM): 93.5% | cell viability ([4]; 10000 nM): 87% | cell viability ([5]; 1 nM): 94.9% | cell viability ([5]; 10 nM): 102% | cell viability ([5]; 100 nM): 97.4% | cell viability ([5]; 1000 nM): 96.2% | cell viability ([5]; 10000 nM): 102% | drug sensitivity score [6]: 1.1 | drug sensitivity score [7]: 0 | drug sensitivity score [8]: 0 | drug sensitivity score [9]: 0.1 | drug sensitivity score [10]: 0 | relative viability EC50 [11]: > 10 µM | relative viability EC50 [12]: > 10 µM | relative viability EC50 [13]: > 10 µM | relative viability EC50 [14]: > 10 µM | relative viability EC50 [15]: > 10 µM

Cn1cc(C(=O)OCC2CCN(CCNS(C)(=O)=O)CC2)c2ccccc21
cell viability ([1]; 1 nM): 96.1% | cell viability ([1]; 10 nM): 96.3% | cell viability ([1]; 100 nM): 93.9% | cell viability ([1]; 1000 nM): 93.3% | cell viability ([1]; 10000 nM): 91.3% | cell viability ([2]; 1 nM): 86% | cell viability ([2]; 10 nM): 109% | cell viability ([2]; 100 nM): 100% | cell viability ([2]; 1000 nM): 103% | cell viability ([2]; 10000 nM): 108% | cell viability ([3]; 1 nM): 99.7% | cell viability ([3]; 10 nM): 101% | cell viability ([3]; 100 nM): 96.8% | cell viability ([3]; 1000 nM): 98.8% | cell viability ([3]; 10000 nM): 95.3% | cell viability ([4]; 1 nM): 99% | cell viability ([4]; 10 nM): 95.8% | cell viability ([4]; 100 nM): 85.9% | cell viability ([4]; 1000 nM): 93.3% | cell viability ([4]; 10000 nM): 96.8% | cell viability ([5]; 1 nM): 101% | cell viability ([5]; 10 nM): 96.8% | cell viability ([5]; 100 nM): 100% | cell viability ([5]; 1000 nM): 95.1% | cell viability ([5]; 10000 nM): 96.5% | drug sensitivity score [6]: 0 | drug sensitivity score [7]: 0 | drug sensitivity score [8]: 0 | drug sensitivity score [9]: 0 | drug sensitivity score [10]: 0 | relative viability EC50 [11]: > 10 µM | relative viability EC50 [12]: > 10 µM | relative viability EC50 [13]: > 10 µM | relative viability EC50 [14]: > 10 µM | relative viability EC50 [15]: > 10 µM

N=C(N)c1ccc(N2CCN(C3CCN(CC(=O)O)CC3)CC2)cc1
cell viability ([1]; 1 nM): 111% | cell viability ([1]; 10 nM): 96.8% | cell viability ([1]; 100 nM): 101% | cell viability ([1]; 1000 nM): 107% | cell viability ([1]; 10000 nM): 102% | cell viability ([2]; 1 nM): 91.4% | cell viability ([2]; 10 nM): 96.4% | cell viability ([2]; 100 nM): 90% | cell viability ([2]; 1000 nM): 92% | cell viability ([2]; 10000 nM): 100% | cell viability ([3]; 1 nM): 97.6% | cell viability ([3]; 10 nM): 103% | cell viability ([3]; 100 nM): 95.6% | cell viability ([3]; 1000 nM): 96.9% | cell viability ([3]; 10000 nM): 102% | cell viability ([4]; 1 nM): 83% | cell viability ([4]; 10 nM): 97.2% | cell viability ([4]; 100 nM): 89.2% | cell viability ([4]; 1000 nM): 92.5% | cell viability ([4]; 10000 nM): 104% | cell viability ([5]; 1 nM): 97.9% | cell viability ([5]; 10 nM): 98.6% | cell viability ([5]; 100 nM): 99.2% | cell viability ([5]; 1000 nM): 93.5% | cell viability ([5]; 10000 nM): 96.9% | drug sensitivity score [6]: 0 | drug sensitivity score [7]: 0 | drug sensitivity score [8]: 0 | drug sensitivity score [9]: 0 | drug sensitivity score [10]: 0 | relative viability EC50 [11]: > 10 µM | relative viability EC50 [12]: > 10 µM | relative viability EC50 [13]: > 10 µM | relative viability EC50 [14]: > 10 µM | relative viability EC50 [15]: > 10 µM

O=c1c2ccccc2[se]n1-c1ccccc1 [Ebselen]
cell viability ([1]; 1 nM): 113% | cell viability ([1]; 10 nM): 98.2% | cell viability ([1]; 100 nM): 103% | cell viability ([1]; 1000 nM): 100% | cell viability ([1]; 10000 nM): 106% | cell viability ([2]; 1 nM): 104% | cell viability ([2]; 10 nM): 91.8% | cell viability ([2]; 100 nM): 107% | cell viability ([2]; 1000 nM): 83.1% | cell viability ([2]; 10000 nM): 87.7% | cell viability ([3]; 1 nM): 103% | cell viability ([3]; 10 nM): 95.8% | cell viability ([3]; 100 nM): 105% | cell viability ([3]; 1000 nM): 98.9% | cell viability ([3]; 10000 nM): 74.5% | cell viability ([4]; 1 nM): 102% | cell viability ([4]; 10 nM): 89.2% | cell viability ([4]; 100 nM): 104% | cell viability ([4]; 1000 nM): 91.6% | cell viability ([4]; 10000 nM): 92.2% | cell viability ([5]; 1 nM): 97.6% | cell viability ([5]; 10 nM): 100% | cell viability ([5]; 100 nM): 105% | cell viability ([5]; 1000 nM): 92.8% | cell viability ([5]; 10000 nM): 93.7% | drug sensitivity score [6]: 0 | drug sensitivity score [7]: 1.7 | drug sensitivity score [8]: 1.1 | drug sensitivity score [9]: 0 | drug sensitivity score [10]: 0 | relative viability EC50 [11]: > 10 µM | relative viability EC50 [12]: > 10 µM | relative viability EC50 [14]: > 10 µM | relative viability EC50 [15]: > 10 µM

CCc1ccc2c(-c3cccc(Cl)c3)nc(=O)n(CC)c2n1 [YM-976]
cell viability ([1]; 1 nM): 95.9% | cell viability ([1]; 10 nM): 104% | cell viability ([1]; 100 nM): 97% | cell viability ([1]; 1000 nM): 103% | cell viability ([1]; 10000 nM): 86.3% | cell viability ([2]; 1 nM): 109% | cell viability ([2]; 10 nM): 98.7% | cell viability ([2]; 100 nM): 101% | cell viability ([2]; 1000 nM): 98.3% | cell viability ([2]; 10000 nM): 108% | cell viability ([4]; 1 nM): 104% | cell viability ([4]; 10 nM): 95.6% | cell viability ([4]; 100 nM): 104% | cell viability ([4]; 1000 nM): 109% | cell viability ([4]; 10000 nM): 97.1% | cell viability ([5]; 1 nM): 96.6% | cell viability ([5]; 10 nM): 97.3% | cell viability ([5]; 100 nM): 92.3% | cell viability ([5]; 1000 nM): 90.1% | cell viability ([5]; 10000 nM): 91.9% | drug sensitivity score [6]: 0.1 | drug sensitivity score [7]: 0 | drug sensitivity score [9]: 0 | drug sensitivity score [10]: 0 | relative viability EC50 [11]: > 10 µM | relative viability EC50 [12]: > 10 µM | relative viability EC50 [14]: > 10 µM | relative viability EC50 [15]: > 10 µM

Oc1c(Cl)cc(Cl)c(Cl)c1Cc1c(O)c(Cl)cc(Cl)c1Cl [hexachlorophene]
cell viability ([1]; 1 nM): 98% | cell viability ([1]; 10 nM): 98.3% | cell viability ([1]; 100 nM): 94% | cell viability ([1]; 1000 nM): 94.4% | cell viability ([1]; 10000 nM): 23.8% | cell viability ([2]; 1 nM): 107% | cell viability ([2]; 10 nM): 103% | cell viability ([2]; 100 nM): 107% | cell viability ([2]; 1000 nM): 99.4% | cell viability ([2]; 10000 nM): 94.2% | cell viability ([3]; 1 nM): 97.8% | cell viability ([3]; 10 nM): 96.8% | cell viability ([3]; 100 nM): 92.9% | cell viability ([3]; 1000 nM): 96.1% | cell viability ([3]; 10000 nM): 70.9% | cell viability ([4]; 1 nM): 95% | cell viability ([4]; 10 nM): 97.1% | cell viability ([4]; 100 nM): 92.3% | cell viability ([4]; 1000 nM): 91.6% | cell viability ([4]; 10000 nM): 20.9% | cell viability ([5]; 1 nM): 102% | cell viability ([5]; 10 nM): 102% | cell viability ([5]; 100 nM): 100% | cell viability ([5]; 1000 nM): 99.9% | cell viability ([5]; 10000 nM): 82% | drug sensitivity score [6]: 5.1 | drug sensitivity score [7]: 0 | drug sensitivity score [8]: 1.9 | drug sensitivity score [9]: 5.8 | drug sensitivity score [10]: 0.5 | relative viability EC50 [11]: 2.57 µM | relative viability EC50 [12]: > 10 µM | relative viability EC50 [14]: 2.29 µM | relative viability EC50 [15]: > 10 µM

CCc1c(C(=O)C(N)=O)c2c(OCC(=O)O)cccc2n1Cc1ccccc1 [varespladib]
cell viability ([1]; 1 nM): 93.3% | cell viability ([1]; 10 nM): 105% | cell viability ([1]; 100 nM): 96.2% | cell viability ([1]; 1000 nM): 101% | cell viability ([1]; 10000 nM): 97.7% | cell viability ([2]; 1 nM): 104% | cell viability ([2]; 10 nM): 99.2% | cell viability ([2]; 100 nM): 91.2% | cell viability ([2]; 1000 nM): 110% | cell viability ([2]; 10000 nM): 101% | cell viability ([4]; 1 nM): 106% | cell viability ([4]; 10 nM): 90.1% | cell viability ([4]; 100 nM): 94.4% | cell viability ([4]; 1000 nM): 93% | cell viability ([4]; 10000 nM): 106% | cell viability ([5]; 1 nM): 104% | cell viability ([5]; 10 nM): 102% | cell viability ([5]; 100 nM): 107% | cell viability ([5]; 1000 nM): 103% | cell viability ([5]; 10000 nM): 99.5% | drug sensitivity score [6]: 0 | drug sensitivity score [7]: 0 | drug sensitivity score [9]: 0 | drug sensitivity score [10]: 0 | relative viability EC50 [11]: > 10 µM | relative viability EC50 [12]: > 10 µM | relative viability EC50 [14]: > 10 µM | relative viability EC50 [15]: > 10 µM
